Measured values published in US4942234A, “Isothiazolone 1,1-dioxide derivatives with psychotropic activity” (American Home Products Corporation, priority 1989, dated 1990).
Structures can show the parent of a compound that is named as a salt.

Tests used:
[1] = test system: conditioned avoidance response; test: conditioned avoidance (shelf-jump response) test; format: in vivo, male CD rats; settings: rats; for Active at: i.p.
Description: A test designed to determine the potential antipsychotic activity of the compounds of the invention is the conditioned avoidance (shelf-jump response) test.
This test is carried out as follows:
Male CD rats (Charles River) maintained at approximately 400-450 gm body weight are used. […] A moveable wall, controlled by a motor, determines whether the rat has access to the shelf at any time during the experiment. The experimental chamber also contains a house light and sonalert. A steel grid floor in the main chamber is wired for presentation of electric shock. Each trial consists of a fifteen-second warning tone (conditioned stimulus), continuing for an additional fifteen seconds accompanied by electric shock (unconditioned stimulus). A response (jumping onto the exposed shelf of the upper chamber) occurring during the initial fifteen-second warning tone is considered an avoidance response, while a response occurring during shock delivery is considered an escape response. Trials are presented on a fixed interval schedule of one minute. The session consists of thirty-six trials. Animals are run twice weekly with control sessions always preceding a drug run, and with at least one day intervening. Compounds are administered i.p. or p.o. at appropriate pre-treatment times to a minimum of five rats at each dose level over a range of doses.
The following experimental parameters are recorded by computer: (1) the number of avoidance responses, (2) the number of escape responses, and (3) the number of trials in which no response occurred.
Response counts are summed over all subjects at a given dose. […] This number is expressed as a percentage of the total trials. Control performance is arbitrarily assigned a value of 100% for avoidance responding and the dose calculated to produce a 50% block in avoidance responding (AB50) is obtained from a dose-effect regression line fitted by the method of least squares. Potential antipsychotic compounds suppress avoidance responding and increase escape responding.

[2] = test system: apomorphine-induced stereotyped behavior (in vivo dopamine receptor blocking activity); settings: i.p., mice; inactivity taken as low potential for extrapyramidal side effects
[3] = molecular target: limbic D-2 dopamine receptor (Rattus norvegicus, UniProt P61169); test: inhibition of limbic D-2 dopamine receptor binding (3H-spiroperidol); settings: read-out: Limbic D-2 Binding Inhibition, % inhibition at 1 μM
Sequence of limbic D-2 dopamine receptor (P61169 whole entry): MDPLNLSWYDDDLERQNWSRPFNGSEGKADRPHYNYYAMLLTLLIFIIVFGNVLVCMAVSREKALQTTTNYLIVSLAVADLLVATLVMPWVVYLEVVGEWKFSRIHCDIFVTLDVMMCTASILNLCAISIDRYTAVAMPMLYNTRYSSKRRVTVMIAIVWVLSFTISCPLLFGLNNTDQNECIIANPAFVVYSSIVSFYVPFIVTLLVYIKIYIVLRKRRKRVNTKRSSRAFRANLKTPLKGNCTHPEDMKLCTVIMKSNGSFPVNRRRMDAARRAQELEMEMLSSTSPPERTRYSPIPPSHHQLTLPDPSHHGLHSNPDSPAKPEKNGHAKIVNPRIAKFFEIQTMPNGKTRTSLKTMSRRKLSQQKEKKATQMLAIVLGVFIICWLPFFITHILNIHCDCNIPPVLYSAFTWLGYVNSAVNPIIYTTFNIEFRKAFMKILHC
Description: This in vitro assay measures the ability of the compounds tested to bind to the dopamine receptor sites.
The assay is carried out as follows:
Several rats are decapitated and the brains are rapidly removed. Limbic brain tissue (nucleus accumbens, septal area, olfactory tubercle) is dissected and homogenized on ice in 9 volumes of buffer (50 mM Tris-HCl, 120 mM NaCl, 5 mM KCl, 1 mM CaCl2, 1 mM MgCl2, 0.1% L-ascorbic acid, 10 μM pargyline HCl, pH 7.1) using a Polytron homogenizer at setting 5 for three 15-sec bursts. The homogenate is then diluted 4-fold with buffer and centrifuged at 30,000×g for 20 min, and the supernatant is discarded. The pellet is resuspended in the same volume of buffer and recentrifuged as before, again discarding the supernatant. This pellet is then resuspended in the same volume of buffer used in the homogenization, and the protein content of this preparation is assayed by the Lowry method. The homogenate is stored frozen at -70° C. until use.
At the end of the incubation, 3 ml of cold 50 mM Tris-HCl, pH 7.7, are added to each tube, and the contents are rapidly vacuum-filtered through Whatman GF/B glass-fiber filters. The filters are then rapidly washed 3 times with 3 ml of the same buffer, placed in scintillation vials, and shaken for 15 min with 10 ml of Hydrofluor (National Diagnostics) scintillation cocktail. The vials are then counted in a Packard 460CD scintillation counter.
Specific binding is defined as total binding less binding in the presence of 1 μM (+)butaclamol. Binding in the presence of various concentrations of test drug is expressed as a per cent of specific binding when no drug is present.

Row | Structure (SMILES) | ED50 ([1]; Rattus norvegicus, ip, read-out: AB50 (50% block in avoidance responding)) [mg/kg] | activity in apomorphine-induced stereotyped behavior assay [2] | Active at [1] [mg/kg] | inhibition at 1 µM [3] [%]
1 | O=C1CC2(CCCC2)CC(=O)N1CCCCN1CCN(c2ncccn2)CC1 [Buspirone, 8-[4-[4-(2-pyrimidinyl)-1-piperazinyl]butyl]-8-azaspiro[4.5]decane-7,9-dione, reference compound] | 9.44 | inactive | – | –
2 | Cl.O=C1C2C3CCC(O3)C2S(=O)(=O)N1CCCCc1ccncc1 (stereo not drawn) [Example 1, Hexahydro-2-[4-(4-pyridinyl)butyl]-4,7-epoxy-1,2-benzisothiazol-3(2H)-one 1,1-dioxide, hydrochloride] | – | – | 40 | 3
3 | O=C1C2C3CCC(O3)C2S(=O)(=O)N1CCCCC1CCN(c2ncccn2)CC1 (stereo not drawn) [Example 2, Hexahydro-2-[4-[1-(2-pyrimidinyl)-4-piperidinyl]butyl]-4,7-epoxy-1,2-benzisothiazol-3(2H)-one 1,1-dioxide, hydrochloride, monohydrate] | – | – | – | 6
4 | Cl.O=C1C2C3C=CC(C3)C2S(=O)(=O)N1CCCCc1ccncc1 (stereo not drawn) [Example 3, 3a,4,7,7a-Tetrahydro-2-[4-(4-pyridinyl)butyl]-4,7-methano-1,2-benzisothiazol-3(2H)-one 1,1-dioxide, hydrochloride] | – | – | 40 | 1
5 | O=C1C2C3CCC(O3)C2S(=O)(=O)N1CCCCC1CCN(c2cncc(Cl)n2)CC1 (stereo not drawn) [Example 4, Hexahydro-2-[4-[1-(6-chloro-2-pyrazinyl)-4-piperidinyl]butyl]-4,7-epoxy-1,2-benzisothiazol-3(2H)-one 1,1-dioxide, hydrochloride, hydrate] | – | – | – | 7
6 | CC1=C(C)CC2C(C1)C(=O)N(CCCCc1ccncc1)S2(=O)=O.Cl (stereo not drawn) [Example 5, 3a,4,7,7a-Tetrahydro-5,6-dimethyl-2-[4-(4-pyridinyl)butyl]-1,2-benzisothiazol-3(2H)-one 1,1-dioxide, hydrochloride] | – | – | 40 | 56
7 | O=C1C2C3CCC(O3)C2S(=O)(=O)N1CCCCC1CCN(c2cnccn2)CC1 (stereo not drawn) [Example 6, Hexahydro-2-[4-[1-(2-pyrazinyl)-4-piperidinyl]butyl]-4,7-epoxy-1,2-benzisothiazol-3(2H)-one 1,1-dioxide, hydrochloride, hemihydrate] | – | – | – | 6
8 | O=c1c2ccccc2[s+]([O-])n1CCCCc1ccncc1 (stereo not drawn) [Example 7, 2-[4-(4-Pyridinyl)butyl]-1,2-benzisothiazol-3(2H)-one 1-oxide, hydrochloride] | – | – | – | 14
